Source: ChEMBL document CHEMBL4007392, “Modulating Mineralocorticoid Receptor with Non-steroidal Antagonists. New Opportunities for the Development of Potent and Selective Ligands without Off-Target Side Effects” (J Med Chem, 2017)

How the values were obtained:
Progesterone receptor = biological target: T1, Progesterone receptor (Homo sapiens, UniProt P06401); experiment: Antagonist activity at GAL4-fused human PR LBD (680 to 933 residues) expressed in CHO-K1 cells assessed as inhibition of progesterone-induced transactivation activity after 5 to 6 hrs by luciferase reporter gene assay; type: cell-based
T1 sequence (P06401 whole entry): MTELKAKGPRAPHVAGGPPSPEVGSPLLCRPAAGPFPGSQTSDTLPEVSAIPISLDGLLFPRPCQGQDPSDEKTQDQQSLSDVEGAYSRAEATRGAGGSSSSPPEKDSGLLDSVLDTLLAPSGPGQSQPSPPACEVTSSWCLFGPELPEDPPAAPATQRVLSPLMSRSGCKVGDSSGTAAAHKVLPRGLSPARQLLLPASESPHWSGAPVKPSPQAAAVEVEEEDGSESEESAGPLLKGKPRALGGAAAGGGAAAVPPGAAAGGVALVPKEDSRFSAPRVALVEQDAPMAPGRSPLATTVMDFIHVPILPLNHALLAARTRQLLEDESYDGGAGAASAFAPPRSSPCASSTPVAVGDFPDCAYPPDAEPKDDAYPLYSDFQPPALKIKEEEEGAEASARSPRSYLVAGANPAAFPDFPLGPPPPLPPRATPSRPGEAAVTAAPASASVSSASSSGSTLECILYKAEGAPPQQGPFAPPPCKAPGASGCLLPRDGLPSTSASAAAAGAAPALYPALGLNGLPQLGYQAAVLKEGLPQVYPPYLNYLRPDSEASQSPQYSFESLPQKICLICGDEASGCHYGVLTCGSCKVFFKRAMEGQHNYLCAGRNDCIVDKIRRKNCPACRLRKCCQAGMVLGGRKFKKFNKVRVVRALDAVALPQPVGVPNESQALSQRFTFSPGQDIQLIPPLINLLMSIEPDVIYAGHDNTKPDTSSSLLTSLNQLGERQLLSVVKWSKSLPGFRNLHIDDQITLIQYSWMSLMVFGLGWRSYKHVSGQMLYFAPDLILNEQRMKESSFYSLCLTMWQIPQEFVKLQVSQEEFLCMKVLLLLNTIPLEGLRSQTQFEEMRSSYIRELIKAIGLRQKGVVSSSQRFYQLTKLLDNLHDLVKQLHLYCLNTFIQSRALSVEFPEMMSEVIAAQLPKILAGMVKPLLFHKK

Homo sapiens = organism: Homo sapiens; experiment: Induction of improvement in urinary albumin-creatinine ratio in patient with diabetic nephropathy receiving ACE inhibitor or angiotensin receptor blocker at 7.5 to 20 mg/day during latter phase II trial; type: functional; design: scale not given: the % may be the effect or the level left

## CCOc1ncc(C)c2c1[C@H](c1ccc(C#N)cc1OC)C(C(N)=O)=C(C)N2 [FINERENONE]
Progesterone receptor
  IC50: ≥ 10 µM
Homo sapiens
  Activity: 21 - 38%
